Legend:
MOLT-4 = assay: NCI-60 antiproliferative screen (SRB); format: cell-based; settings: Homo sapiens; 10 µM single dose, 48 h; MOLT-4 (Leukemia); read-out: Growth inhibition (%)
SNB-19 = assay: NCI-60 antiproliferative screen (SRB); format: cell-based, human; settings: Homo sapiens; 10 µM single dose, 48 h; SNB-19 (CNS); read-out: Growth inhibition (%)
SF-295 = assay: NCI-60 antiproliferative screen (SRB); format: cell-based, human; settings: Homo sapiens; 10 µM single dose, 48 h; SF-295 (CNS); read-out: Growth inhibition (%)
CAKI-1 = assay: NCI-60 antiproliferative screen (SRB); format: cell-based, human; settings: Homo sapiens; 10 µM single dose, 48 h; CAKI-1 (Renal); read-out: Growth inhibition (%)
HOP-92 = assay: NCI-60 antiproliferative screen (SRB); format: cell-based, human; settings: Homo sapiens; 10 µM single dose, 48 h; HOP-92 (NSCLC); read-out: Growth inhibition (%)
CCRF-CEM = assay: NCI-60 antiproliferative screen (SRB); format: cell-based, human; settings: Homo sapiens; 10 µM single dose, 48 h; CCRF-CEM (Leukemia); read-out: Growth inhibition (%)
RXF 393 = assay: NCI-60 antiproliferative screen (SRB); format: cell-based, human; settings: Homo sapiens; 10 µM single dose, 48 h; RXF 393 (Renal); read-out: Growth inhibition (%)
MDA-MB-468 = assay: NCI-60 antiproliferative screen (SRB); format: cell-based, human; settings: Homo sapiens; 10 µM single dose, 48 h; MDA-MB-468 (Breast); read-out: Growth inhibition (%)
A549/ATCC = assay: NCI-60 antiproliferative screen (SRB); format: cell-based, human; settings: Homo sapiens; 10 µM single dose, 48 h; A549/ATCC (NSCLC); read-out: Growth inhibition (%)
HT29 = assay: NCI-60 antiproliferative screen (SRB); format: cell-based, human; settings: Homo sapiens, HT-29; 10 µM single dose, 48 h; HT29 (Colon); read-out: Growth inhibition (%)
T-47D = assay: NCI-60 antiproliferative screen (SRB); format: cell-based, human; settings: Homo sapiens, T47D; 10 µM single dose, 48 h; T-47D (Breast); read-out: Growth inhibition (%)
SN12C = assay: NCI-60 antiproliferative screen (SRB); format: cell-based, human; settings: Homo sapiens; 10 µM single dose, 48 h; SN12C (Renal); read-out: Growth inhibition (%)
[1] = system: NCI-60 human cancer cell lines; assay: NCI-60 screen, full panel summary; format: cell-based; settings: 10 µM single dose; for Mean Growth Percent: all NCI-60 cell lines; for inhibition at 10 µM: Homo sapiens, read-out: Range of Growth Inhibition on All Cells
Method: In a comprehensive test, compounds were assayed at a single dose concentration (10^−5 M) in the full panel of NCI-60 cancer cell lines.

SK-MEL-5 = assay: NCI-60 antiproliferative screen (SRB); format: cell-based, human; settings: Homo sapiens; 10 µM single dose, 48 h; SK-MEL-5 (Melanoma); read-out: Growth inhibition (%)
LOX IMVI = assay: NCI-60 antiproliferative screen (SRB); format: cell-based, human; settings: Homo sapiens; 10 µM single dose, 48 h; LOX IMVI (Melanoma); read-out: Growth inhibition (%)
HCT-116 = assay: NCI-60 antiproliferative screen (SRB); format: cell-based, human; settings: Homo sapiens; 10 µM single dose, 48 h; HCT-116 (Colon); read-out: Growth inhibition (%)
IGROV1 = assay: NCI-60 antiproliferative screen (SRB); format: cell-based, human; settings: Homo sapiens, IGROV-1; 10 µM single dose, 48 h; IGROV1 (Ovarian); read-out: Growth inhibition (%)
U251 = assay: NCI-60 antiproliferative screen (SRB); format: cell-based, human; settings: Homo sapiens, U-251; 10 µM single dose, 48 h; U251 (CNS); read-out: Growth inhibition (%)
KM12 = assay: NCI-60 antiproliferative screen (SRB); format: cell-based, human; settings: Homo sapiens; 10 µM single dose, 48 h; KM12 (Colon); read-out: Growth inhibition (%)
MDA-MB-231 = assay: NCI-60 antiproliferative screen (SRB); format: cell-based, human; settings: Homo sapiens; 10 µM single dose, 48 h; MDA-MB-231 (Breast); read-out: Growth inhibition (%)
NCI-H226 = assay: NCI-60 antiproliferative screen (SRB); format: cell-based, human; settings: Homo sapiens; 10 µM single dose, 48 h; NCI-H226 (NSCLC); read-out: Growth inhibition (%)
TK-10 = assay: NCI-60 antiproliferative screen (SRB); format: cell-based, human; settings: Homo sapiens; 10 µM single dose, 48 h; TK-10 (Renal); read-out: Growth inhibition (%)
HOP-62 = assay: NCI-60 antiproliferative screen (SRB); format: cell-based, human; settings: Homo sapiens; 10 µM single dose, 48 h; HOP-62 (NSCLC); read-out: Growth inhibition (%)
SK-MEL-28 = assay: NCI-60 antiproliferative screen (SRB); format: cell-based, human; settings: Homo sapiens; 10 µM single dose, 48 h; SK-MEL-28 (Melanoma); read-out: Growth inhibition (%)
SK-OV-3 = assay: NCI-60 antiproliferative screen (SRB); format: cell-based, human; settings: Homo sapiens; 10 µM single dose, 48 h; SK-OV-3 (Ovarian); read-out: Growth inhibition (%)
PC-3 = assay: NCI-60 antiproliferative screen (SRB); format: cell-based, human; settings: Homo sapiens; 10 µM single dose, 48 h; PC-3 (Prostate); read-out: Growth inhibition (%)
EKVX = assay: NCI-60 antiproliferative screen (SRB); format: cell-based, human; settings: Homo sapiens; 10 µM single dose, 48 h; EKVX (NSCLC); read-out: Growth inhibition (%)
OVCAR-8 = assay: NCI-60 antiproliferative screen (SRB); format: cell-based, human; settings: Homo sapiens; 10 µM single dose, 48 h; OVCAR-8 (Ovarian); read-out: Growth inhibition (%)

Compound | inhibition at 10 µM (MOLT-4) [%] | inhibition at 10 µM (SNB-19) [%] | inhibition at 10 µM (SF-295) [%] | inhibition at 10 µM (CAKI-1) [%] | inhibition at 10 µM (HOP-92) [%] | inhibition at 10 µM (CCRF-CEM) [%] | inhibition at 10 µM (RXF 393) [%] | inhibition at 10 µM (MDA-MB-468) [%] | inhibition at 10 µM (A549/ATCC) [%] | inhibition at 10 µM (HT29) [%] | inhibition at 10 µM (T-47D) [%] | inhibition at 10 µM (SN12C) [%] | Positive Cytostatic Effect (cell lines with percent growth from 0 to 50 / total number of cell lines) [1] | Positive Cytotoxic Effect (cell lines with percent growth of <0 / total number of cell lines) [1] | Sensitive/Total Cell Lines [1] | Mean Growth Percent [1] | inhibition at 10 µM (SK-MEL-5) [%] | inhibition at 10 µM (LOX IMVI) [%] | melting point [°C] | inhibition at 10 µM (HCT-116) [%] | further results
O=C1Nc2ccccc2C1=Cc1ccc(OCc2ccncc2)cc1 (mixture of isomers) [Compound 5m, (E/Z)-3-[4-(Pyridin-4-ylmethoxy)benzylidene] indolin-2-one] | 78.5 | 43.1 | 58.3 | 45.6 | 40.2 | 40.5 | 43.9 | 91.1 | 34.5 | 11.2 | 65.1 | 21.4 | 14/59 | 0/59 | 14/59 | 38.04 | 90 | 41.4 | 238 to 240 | 40.5 | The Most Sensitive Cell Line [1]: MDA-MB-468; number of cell lines with cytostatic effects [1]: 14; inhibition at 10 µM (IGROV1): 25.4%; inhibition at 10 µM (U251): 38.9%; inhibition at 10 µM (KM12): 66.3%; inhibition at 10 µM (MDA-MB-231): 16.6%; inhibition at 10 µM (NCI-H226): 42.4%; inhibition at 10 µM (TK-10): 17.9%; inhibition at 10 µM (HOP-62): 23%; inhibition at 10 µM (SK-MEL-28): -4.73%; inhibition at 10 µM (SK-OV-3): 9.38%; inhibition at 10 µM (PC-3): 46%; inhibition at 10 µM (EKVX): 63.5%; inhibition at 10 µM (OVCAR-8): 35%
O=C1Nc2ccccc2C1=Cc1ccc(OCc2ccccc2)cc1 (mixture of isomers) [Compound 5a, (E/Z)-3-[4-(Benzyloxy)benzylidene] indolin-2-one] | 2.73 | 2.17 | -6.78 | 2 | -7 | 0.52 | -16.2 | 0.75 | -3.26 | -6.64 | 0.85 | 6.16 | 0/59 | 0/59 | 0/59 | −1.00 | 1.96 | -7.76 | 220 to 223 | 4.24 | antiproliferative activity (in words) [1]: weak antiproliferative activity; inhibition at 10 µM [1]: -16.2 to 15.8%; inhibition at 10 µM (IGROV1): -9.53%; inhibition at 10 µM (U251): -3.49%; inhibition at 10 µM (KM12): -3.15%; inhibition at 10 µM (MDA-MB-231): -10%; inhibition at 10 µM (NCI-H226): 4.45%; inhibition at 10 µM (TK-10): -8.25%; inhibition at 10 µM (HOP-62): -4.06%; inhibition at 10 µM (SK-MEL-28): -7.21%; inhibition at 10 µM (SK-OV-3): -5.78%; inhibition at 10 µM (PC-3): 5.85%; inhibition at 10 µM (EKVX): 0.69%; inhibition at 10 µM (OVCAR-8): 2.34%
O=C1Nc2ccc(F)cc2C1=Cc1ccc(OCc2ccccc2)cc1 (mixture of isomers) [Compound 5b, (E/Z)-3-[4-(Benzyloxy)benzylidene]-5-fluoroindolin-2-one] | -0.05 | 1.26 | 1.11 | 8.23 | 4.77 | -10.8 | 0.31 | 1.56 | 3.9 | 2.38 | 3.79 | 0.27 | 0/57 | 0/57 | 0/57 | 1.62 | -0.59 | -6.24 | 244 to 248 | 4.15 | antiproliferative activity (in words) [1]: weak antiproliferative activity; inhibition at 10 µM [1]: -10.8 to 9.53%; inhibition at 10 µM (IGROV1): 2.92%; inhibition at 10 µM (U251): 0.4%; inhibition at 10 µM (KM12): 2.42%; inhibition at 10 µM (MDA-MB-231): 2.43%; inhibition at 10 µM (NCI-H226): 9.53%; inhibition at 10 µM (TK-10): 4.82%; inhibition at 10 µM (HOP-62): -1.2%; inhibition at 10 µM (SK-MEL-28): 2.92%; inhibition at 10 µM (SK-OV-3): 0.16%; inhibition at 10 µM (PC-3): -2.77%; inhibition at 10 µM (EKVX): 0.65%; inhibition at 10 µM (OVCAR-8): -0.84%
O=C1Nc2ccc(Cl)cc2C1=Cc1ccc(OCc2ccccc2)cc1 (mixture of isomers) [Compound 5c, (E/Z)-3-[4-(Benzyloxy)benzylidene]-5-chloroindolin-2-one] | 3.28 | -1.05 | -11.1 | 13.4 | 9.75 | 0.21 | -5.38 | -0.96 | -0.99 | -2.95 | 4.11 | 0.7 | 0/59 | 0/59 | 0/59 | 0.10 | 1.9 | 0.14 | 214 to 216 | 3.41 | antiproliferative activity (in words) [1]: weak antiproliferative activity; inhibition at 10 µM [1]: -13 to 23.9%; inhibition at 10 µM (IGROV1): -5.14%; inhibition at 10 µM (U251): -1.54%; inhibition at 10 µM (KM12): -1.02%; inhibition at 10 µM (MDA-MB-231): -5.3%; inhibition at 10 µM (NCI-H226): 11.1%; inhibition at 10 µM (TK-10): -12.7%; inhibition at 10 µM (HOP-62): 3.77%; inhibition at 10 µM (SK-MEL-28): -8.75%; inhibition at 10 µM (SK-OV-3): -1.7%; inhibition at 10 µM (PC-3): 12.9%; inhibition at 10 µM (EKVX): 0.85%; inhibition at 10 µM (OVCAR-8): -0.47%
